Source: ChEMBL document CHEMBL1165975, “Synthesis, molecular modeling and biological evaluation of dithiocarbamates as novel antitubulin agents” (Bioorg Med Chem, 2010)

What was measured:
[1] = test system: MCF7; assay: Cytotoxicity against human MCF7 cells after 48 hrs by MTT assay; format: functional, cell-based; settings: MCF7, 48 h
[2] = Inhibition of bovine brain tubulin polymerization after 20 mins; design: species or system Bos taurus
[3] = test system: MCF7; assay: Cell cycle arrest in human MCF7 cells assessed as accumulation at S phase at 250 nM after 24 hrs by flow cytometry; format: functional
[4] = test system: MCF7; assay: Cell cycle arrest in human MCF7 cells assessed as accumulation at S phase at 25 nM after 24 hrs by flow cytometry; format: functional
[5] = test system: MCF7; assay: Cell cycle arrest in human MCF7 cells assessed as accumulation at G2/M phase at 25 nM after 24 hrs by flow cytometry; format: functional
[6] = test system: MCF7; assay: Cell cycle arrest in human MCF7 cells assessed as accumulation at G2/M phase at 250 nM after 24 hrs by flow cytometry; format: functional
[7] = test system: MCF7; assay: Cell cycle arrest in human MCF7 cells assessed as accumulation at G1 phase at 25 nM after 24 hrs by flow cytometry; format: functional
[8] = test system: MCF7; assay: Cell cycle arrest in human MCF7 cells assessed as accumulation at G1 phase at 250 nM after 24 hrs by flow cytometry; format: functional

| SMILES | IC50 [2] | IC50 [1] | further results |
| --- | --- | --- | --- |
| CCN(CC)C(=S)SC(CC(C)=O)c1ccccc1 (configuration not stated) | 250 µM | 23 µM |  |
| CCN(CC)C(=S)SC(CC(=O)c1ccc(OC)cc1)c1ccccc1Cl (configuration not stated) | 10 µM | 0.07 µM |  |
| CCN(CC)C(=S)SC(CC(=O)c1ccc(OC)cc1)c1ccc(C)cc1 (configuration not stated) | 180 µM | 17 µM |  |
| CCN(CC)C(=S)SC(CC(=O)c1ccc(Br)cc1)c1ccc(F)cc1 (configuration not stated) | 18 µM | 1 µM |  |
| CCN(CC)C(=S)SC(CC(=O)c1ccc(OC)cc1)c1ccc(OC)cc1 (configuration not stated) | 84 µM | 0.8 µM |  |
| CCN(CC)C(=S)SC(CC(=O)c1ccccc1)c1cccc([N+](=O)[O-])c1 (configuration not stated) | 90 µM | 9 µM |  |
| CCN(CC)C(=S)SC(CC(=O)c1ccc(Cl)c(Cl)c1)c1ccccc1 (configuration not stated) | 60 µM | 4.5 µM |  |
| CCN(CC)C(=S)SC(CC(=O)c1ccccc1)c1ccccc1OC (configuration not stated) | 150 µM | 16 µM |  |
| CCN(CC)C(=S)SC(CC(=O)c1ccc(Br)cc1)c1ccc(OC)cc1 (configuration not stated) | 52 µM | 5 µM |  |
| COc1cc2c(c(OC)c1OC)-c1ccc(OC)c(=O)cc1[C@@H](NC(C)=O)CC2 [COLCHICINE] | 3.2 µM | 0.017 µM | Activity [4]: 15.96%; Activity [5]: 32.28%; Activity [7]: 24.31% |
| COc1ccc(/C=C\c2cc(OC)c(OC)c(OC)c2)cc1O [COMBRETASTATIN A4] | 2.2 µM |  |  |

More lines, main results first:

| IC50 [2] | SMILES | IC50 [1] | further results |
| --- | --- | --- | --- |
| 130 µM | CCN(CC)C(=S)SC(CC(=O)c1ccccc1)c1ccccc1 (configuration not stated) | 17 µM |  |
| 6.8 µM | CCN(CC)C(=S)SC(CC(=O)c1ccc(Cl)cc1)c1ccccc1 (configuration not stated) | 0.04 µM | Activity [3]: 12.22%; Activity [4]: 16.28%; Activity [5]: 19.99%; Activity [6]: 39.54%; Activity [7]: 50.86%; Activity [8]: 12.86% |
| 80 µM | CCN(CC)C(=S)SC(CC(=O)c1ccccc1)c1ccc(F)cc1 (configuration not stated) | 0.7 µM |  |
| 220 µM | CCN(CC)C(=S)SC(CC(=O)c1ccccc1)c1ccc(C)cc1 (configuration not stated) | 20 µM |  |
| 15 µM | CCN(CC)C(=S)SC(CC(=O)c1ccccc1)c1ccc(Cl)cc1 (configuration not stated) | 0.12 µM |  |
| 12 µM | CCN(CC)C(=S)SC(CC(=O)c1ccccc1)c1ccc(Br)cc1 (configuration not stated) | 0.08 µM |  |
| 52 µM | CCN(CC)C(=S)SC(CC(=O)c1ccccc1)c1ccccc1Cl (configuration not stated) | 4.5 µM |  |
| 65 µM | CCN(CC)C(=S)SC(CC(=O)c1ccc(Br)cc1)c1ccccc1 (configuration not stated) | 5 µM |  |
| 140 µM | CCN(CC)C(=S)SC(CC(=O)c1ccc(OC)cc1)c1ccc(Cl)cc1 (configuration not stated) | 16 µM |  |
| 45 µM | CCN(CC)C(=S)SC(CC(=O)c1ccccc1)c1ccc(OC)cc1 (configuration not stated) | 4.6 µM |  |
| 62 µM | CCN(CC)C(=S)SC(CC(=O)c1ccc(OC)cc1)c1ccccc1 (configuration not stated) | 4.5 µM |  |
